# Patent publication US9623025B2 (priority 2009, dated 2017)
# Molecular target: hCA IX (Homo sapiens, UniProt Q16790)
# Test: biochemical
smiles,measurement,value
"Cc1cn(-c2cc(NC(=O)c3ccc(C)c(Nc4nccc(-c5cccnc5)n4)c3)cc(C(F)(F)F)c2)cn1 [Nilotinib, 4-methyl-3-[[4-(3-pyridinyl)-2-pyrimidinyl]amino]-N-[5-(4-methyl-1H-imidazol-1-yl)-3-(trifluoromethyl)phenyl] benzamide]",Ki,41.9 to 75.7 nM
